Test results taken from patent publication US6093723A, “4-substituted beta-carbolines and analogs thereof” (Boehringer Ingelheim Pharmaceuticals, Inc., priority 1997, dated 2000).
pIC50: −log10 of the molar value.

What was measured:
[1] = test system: Ca^+2 influx in Jurkat cells (clone E6-1); assay: Calcium influx assay (thapsigargin-stimulated, Fluo-3); type: cell-based; settings: Homo sapiens; Jurkat cells clone E6-1, thapsigargin 100 nM, 10 min preincubation
Procedure: Jurkat cells (clone E6-1) are pelleted by centrifugation, washed twice, and resuspended in RPMI 1640 containing, […], 1 % fetal calf serum, 3 μM Fluo-3-AM, 13.5 μl/ml Pluronic F 127 (Molecular Probes) and incubated for 1 hour at 37° C. The loaded cells are washed twice in Hanks Balanced Salt Solution containing 10 mM HEPES. The cells are resuspended in HBSS containing 10 mM HEPES, and dispensed into 96-well Dynatech black microtiter plates at 2×10^5 cells/well. The cells are preincubated with compounds for 10 minutes at room temperature. Baseline fluorescence of unstimulated cells is measured using an SLT fluorescent microtiter plate reader with an excitation wavelength of 495 nm and emission wavelength of 538 nm. Thapsigargin is then added to a final concentration of 100 nM. Following a 5 minute incubation, fluorescence of thapsigargin treated cells is measured. Delta fluorescence values are determined by subtracting baseline fluorescence values from thapsigargin induced fluorescence values.

IL-2 promoter = IL-2 promoter assay (luciferase reporter in Jurkat cells); type: cell-based; settings: Homo sapiens; Jurkat luciferase reporter cells, ionomycin 1 μg/ml and PMA 10 ng/ml, 5 hr; read-out: IL-2 PROMOTER IC50
From the text: All the known regulatory features of IL-2 gene are contained within a ~300 bp sequence immediately upstream of the open reading frame. […] The resulting construct, pIL2P-luc, and a vector containing a neomycin resistance gene, pcDNA/Neo (Invitrogen), are linearized and stably transfected into Jurkat cells (a human T cell line) by electroporation.
For screening compounds, the cells are pelleted by centrifugation, washed once with PBS, resuspended in RPMI (phenol red-free) containing 5% FBS, and dispensed into 96-well, white microtiter plates (Packard) at 50,000 cells/well. The cells are pre-incubated with compounds (1 μg/ml) for 15 min prior to addition of ionomycin (1 μg/ml) and PMA (10 ng/ml) in a final volume of 100 μl. Following a 5 hr incubation at 37° C. in a humidified incubator, 100 μl of Luc-Lite lysis buffer/luciferase assay buffer (Promega) is added and luminescence measured using a Packard TopCount scintillation counter/luminometer.

[2] = test system: IL-2 production in T lymphocytes (CD3+/CD4+ cells); assay: IL-2 production assay, Protocol B (antiCD3/antiCD28 as stimuli); type: cell-based; settings: T-lymphocyte; human T lymphocytes, anti-CD3/anti-CD28 and goat anti-mouse coated beads, 16 hour
Procedure: Protocol B (antiCD3/antiCD28 as stimuli)
Human peripheral blood is obtained from healthy donors by venipuncture and the mononuclear cell fraction is prepared by centrifugation on Ficoll Hypaque (Phamacia) density gradients. Contaminating red blood cells are lysed and the CD3+/CD4+ cells are purified using immunoaffinity columns (R&D Systems or CellPro). The T lymphocytes are plated at 1-1.5×10^5 cells/well in a 96 well microtiter plate, and incubated with serial dilutions of compounds for 20 minutes at 37° C. The T cells are activated by the addition of 0.6 ng/ml anti-CD3 (Immunotech), 500 ng/ml anti-CD28 (Biodesign) and 2×10^5 goat anti-mouse coated beads (Dynal). The final volume of the assay is 200 μl. Following a 16 hour incubation at 37° C., the cells are pelleted, and the supernatants are removed and collected and stored at -70° C. until assayed for interleukin-2 using a commercial ELISA kit (R&D Systems).

[3] = test system: IL-2 production in CD3+/CD4+ cells; assay: IL-2 production assay, Protocol A (ionomycin and PMA as stimuli); type: cell-based; settings: human CD3+/CD4+ cells, ionomycin 1 μg/ml and PMA 10 ng/ml, 16 hr
Procedure: Protocol A (ionomycin and […] as stimuli)
Human peripheral blood is obtained from healthy donors by venipuncture and the mononuclear cell fraction is prepared by centrifugation on Ficoll Hypaque (Phamacia) density gradients. Contaminating red blood cells are lysed and the CD3+/CD4+ cells are purified using immunoaffinity columns (R&D Systems or CellPro). The cells are resuspended and dispensed in 96 well microtiter plates. Test compounds are added to the cells approximately 15 minutes prior to stimulation with ionomycin (1 μg/ml) and PMA (10 ng/ml). The final volume of the assay is 100 μL. Following a 16 hr incubation at 37° C., the cells are pelleted by centrifugation, and the supernatants are collected and stored at -70° C. until assayed for IL-2 using a commercial ELISA kit (Genzyme).

[4] = test system: allogeneic cell transplant response (T-cell-mediated immune response, popliteal lymph node); assay: Allogeneic cell transplant response in mice (popliteal lymph node weight); type: in vivo, mice (DBA donors, C57B1/6 recipients); settings: dosed one hour prior to cell injection and daily thereafter, ~four days
From the text: Allogeneic Cell Transplant Response in Mice
The ability of cells to recognize other cells from self or from another genetically different individual (non-self) is an important property in maintaining the integrity of tissue and organ structure. The allogeneic cell transplant response is therefore an important model for studies of transplant rejection. This T-cell-mediated immune response can be induced in adult mice by the injection of lymphocytes from an histoincompatible mouse strain. This response is characterized by T cell proliferation which is limited to the popliteal lymph node that receives drainage from the footpad area. No in vitro system exists that can exactly duplicate completely this in vivo response. The assay is commonly used to evaluate new and novel potential immunosuppressive molecules.
Experiments are conducted using male or female mice (20-26 grams). Any histoincompatible mouse strains suffice for donor and recipient populations. Typically DBA mice are used as donors and C57B1/6 mice are used as recipients. A minimum of 1 week stabilization and conditioning period is usually required before use of the mice. Each study utilizes approximately 36 recipient mice divided into groups of 6.
Donor mice are sacrificed by CO2 asphyxiation and spleens are removed and a cell suspension is prepared. The cell suspension (1.0×10^7/metatarsal in 0.05 ml) is injected I.D. into the dorsal metatarsal skin of recipient mice. Four days later, the animals are sacrificed by CO2 asphyxiation and the popliteal nodes are removed and weighed. Groups of mice receiving putative immunosuppressive agents are dosed subcutaneously,intraperitoneally or orally one hour prior to cell injection and daily thereafter. The tests last approximately four days. The assay involves no footpad swelling and only a moderate increase in the size of the popliteal lymph node. Student's t test is used to determine significant differences between popliteal lymph nodes of groups of untreated mice and those mice treated with putative immunosuppressive agents.

Structure (SMILES) | pIC50 [1] | pIC50 (IL-2 promoter) | IC50 [2] | IC50 [3] | ALLOGENEIC CELL TRANSPLANT % ([4]; 0.1 mg/kg) | ALLOGENEIC CELL TRANSPLANT % ([4]; 1 mg/kg)
FC(F)(F)c1ccc(-c2cncc3[nH]c4ccccc4c23)cc1 [Compound 4, 4-(p-Trifluoromethylphenyl)-β-carboline] | 6.30 | 6.64 | 3.4 µM | 0.3 µM | 38% | –
COc1ccc(-c2cncc3[nH]c4ccccc4c23)cc1 [Compound 5, 4-(p-Methoxyphenyl)-β-carboline] | 6.52 | 5.96 | 4.2 µM | 1 µM | – | 60%
COc1cccc(-c2cncc3[nH]c4ccccc4c23)c1 [Compound 7] | 6.15 | 5.52 | 9.8 µM | 5 µM | – | 49%
